From US9133104B2 (Chroma Therapeutics Ltd., priority 2005, dated 2015)

Columns and labels:
[1] = target: T1, histone deacetylase activity (HeLa nuclear extract); experiment: HDAC fluorescent activity assay (Biomol Fluor de Lys), HeLa nuclear extract; format: biochemical; settings: Fluor de Lys substrate, IC50 range
T1 construct: Histone deacetylase activity from crude nuclear extract derived from HeLa cells was used for screening
Procedure: The ability of compounds to inhibit histone deacetylase activities was measured using the commercially available HDAC fluorescent activity assay from Biomol. In brief, the Fluor de Lys™ substrate, a lysine with an epsilon-amino acetylation, is incubated with the source of histone deacetylase activity (HeLa nuclear extract) in the presence or absence of inhibitor. Deacetylation of the substrate sensitises the substrate to Fluor de Lys™ developer, which generates a fluorophore. Thus, incubation of the substrate with a source of HDAC activity results in an increase in signal that is diminished in the presence of an HDAC inhibitor.
Data are expressed as a percentage of the control, measured in the absence of inhibitor, with background signal being subtracted from all samples, as follows:— % activity=((S^i−B)/(S^o−B))×100 where S^i is the signal in the presence of substrate, enzyme and inhibitor, S^o is the signal in the presence of substrate, enzyme and the vehicle in which the inhibitor is dissolved, and B is the background signal measured in the absence of enzyme.
IC50 values were determined by non-linear regression analysis, after fitting the results of eight data points to the equation for sigmoidal dose response with variable slope (% activity against log concentration of compound), using Graphpad Prism software.
Histone deacetylase activity from crude nuclear extract derived from HeLa cells was used for screening. The preparation, purchased from 4C (Seneffe, Belgium), was prepared from HeLa cells harvested whilst in exponential growth phase. The nuclear extract is prepared according to Dignam JD1983 Nucl. Acid. Res. 11, 1475-1489, snap frozen in liquid nitrogen and stored at −80° C. The final buffer composition was 20 mM Hepes, 100 mM KCl, 0.2 mM EDTA, 0.5 mM DTT, 0.2 mM PMSF and 20% (v/v) glycerol.

[2] = test system: Hela cancer cell line; experiment: Cell inhibition assay (SRB cell viability), Hela; format: cell-based; settings: 72 h, Hela cells, IC50 range
Procedure: (§1) The corresponding cancer cell lines (Hela, U937 and HUT) growing in log phase were harvested and seeded at 1000 cells/well (200 ul final volume) into 96-well tissue culture plates. Following 24 h of cell growth cells were treated with compounds (final concentration of 20 uM). Plates were then re-incubated for a further 72 h before a sulphorhodamine B (SRB) cell viability assay was conducted according to Skehan 1990 J Natl Canc Inst 82, 1107-1112.
(§2) Data were expressed as a percentage inhibition of the control, measured in the absence of inhibitor, as follows:— % inhibition=100−((S^i/S^o)×100) where S^i is the signal in the presence of inhibitor and S^o is the signal in the presence of DMSO. IC50 values were determined by non-linear regression analysis, after fitting the results of eight data points to the equation for sigmoidal dose response with variable slope (% activity against log concentration of compound), using Graphpad Prism software. […] NT=Not tested

[3] = test system: U937 cancer cell line; experiment: Cell inhibition assay (SRB cell viability), U937; format: cell-based; settings: Homo sapiens, U-937, U937 cells, 72 h, IC50 range
Procedure: as §1, §2

[4] = test system: HUT cancer cell line; experiment: Cell inhibition assay (SRB cell viability), HUT; format: cell-based; settings: HUT cells, 72 h, IC50 range
Procedure: as §1, §2

Row | SMILES | IC50 [1] [nM] | IC50 ([2]; Homo sapiens, HeLa) [nM] | IC50 [3] [nM] | IC50 [4] [nM] | IC50 [2] [nM]
1 | O=C(CCCCCCC(=O)N1Cc2[nH]c3ccccc3c2C[C@@H]1C(=O)N[C@H](C(=O)OC1CCCC1)c1ccccc1)NO [Compound 1, (S)-{[(R)-2-(7-Hydroxycarbamoyl-heptanoyl)-2,3,4,9-tetrahydro-1H-beta-carboline-3-carbonyl]-amino}-phenyl-acetic acid cyclopentyl ester] | 101 to 1000 | > 3300 | 330 to 3300 | 330 to 3300 | –
2 | O=C(CCCCCCC(=O)N1Cc2[nH]c3ccccc3c2C[C@H]1C(=O)N[C@H](C(=O)OC1CCCC1)c1ccccc1)NO [Compound 3, (S)-{[(S)-2-(7-Hydroxycarbamoyl-heptanoyl)-2,3,4,9-tetrahydro-1H-beta-carboline-3-carbonyl]-amino}-phenyl-acetic acid cyclopentyl ester] | > 1000 | > 3300 | 330 to 3300 | > 3300 | –
3 | O=C(CCCCCCC(=O)N1Cc2[nH]c3ccccc3c2C[C@H]1C(=O)N[C@H](C(=O)O)c1ccccc1)NO [Compound 4, (S)-{[(S)-2-(7-Hydroxycarbamoyl-heptanoyl)-2,3,4,9-tetrahydro-1H-beta-carboline-3-carbonyl]-amino}-phenyl-acetic acid] | 101 to 1000 | > 3300 | > 3300 | > 3300 | –
4 | CCOC(=O)[C@H](Cc1ccccc1)NC(=O)[C@H]1Cc2c([nH]c3ccccc23)CN1C(=O)CCCCCCC(=O)NO [Compound 5, (S)-2-{[(R)-2-(7-Hydroxycarbamoyl-heptanoyl)-2,3,4,9-tetrahydro-1H-beta-carboline-3-carbonyl]-amino}-3-phenyl-propionic acid ethyl ester] | 101 to 1000 | 330 to 3300 | 330 to 3300 | 330 to 3300 | –
5 | CCOC(=O)[C@H](COC(C)(C)C)NCc1cccc(NC(=O)CCCCCCC(=O)NO)c1 [Compound 32, (S)-3-tert-Butoxy-2-[3-(7-hydroxycarbamoyl-heptanoylamino)-benzylamino]-propionic acid ethyl ester] | < 100 | 330 to 3300 | – | 330 to 3300 | –
6 | CC(C)C[C@H](NCc1cccc(NC(=O)CCCCCCC(=O)NO)c1)C(=O)OC1CCCC1 [Compound 39, (S)-2-[3-(7-Hydroxycarbamoyl-heptanoylamino)-benzylamino]-4-methyl-pentanoic acid cyclopentyl ester] | 101 to 1000 | – | < 330 | 330 to 3300 | –
7 | O=C(CCCCCCC(=O)N1Cc2ccccc2C[C@H]1C(=O)N[C@H](C(=O)O)c1ccccc1)NO [Compound 45, (S)-{[(S)-2-(7-Hydroxycarbamoyl-heptanoyl)-1,2,3,4-tetrahydro-isoquinoline-3-carbonyl]-amino}-phenyl-acetic acid] | > 1000 | > 3300 | – | – | –
8 | O=C(CCCCCCC(=O)N1Cc2ccccc2C[C@H]1C(=O)N[C@@H](Cc1ccccc1)C(=O)O)NO [Compound 49, (S)-2-{[(S)-2-(7-Hydroxycarbamoyl-heptanoyl)-1,2,3,4-tetrahydro-isoquinoline-3-carbonyl]amino}-3-phenyl-propionic acid] | 101 to 1000 | – | – | – | > 3300
9 | O=C(CCCCCCC(=O)N1CCCC1C(=O)N[C@H](C(=O)O)c1ccccc1)NO (stereo partly drawn) [Compound 54, (S)-{[1-(7-Hydroxycarbamoyl-heptanoyl)-pyrrolidine-2-carbonyl]-amino}-phenyl-acetic acid] | > 1000 | > 3300 | – | – | –
10 | O=C(CCCCCCC(=O)N1CCCC1C(=O)N[C@@H](Cc1ccccc1)C(=O)O)NO (stereo partly drawn) [Compound 57, (S)-2-{[1-(7-Hydroxycarbamoyl-heptanoyl)-pyrrolidine-2-carbonyl]-amino}-3-phenyl-propionic acid] | > 1000 | > 3300 | – | – | –
11 | O=C(CCCCCCC(=O)N1Cc2[nH]c3ccccc3c2C(C(=O)NC(Cc2ccccc2)C(=O)O)C1)NO [Compound 59, (S)-2-{[(S)-2-(7-Hydroxycarbamoyl-heptanoyl)-2,3,4,9-tetrahydro-1H-bet α-carboline-4-carbonyl]-amino}-3-phenyl-propionic acid] | < 100 | > 3300 | – | – | –
12 | O=C(CCCCCCC(=O)Nc1cccc(C(=O)N[C@H](C(=O)O)c2ccccc2)c1)NO [Compound 61, (S)-[3-(7-Hydroxycarbamoyl-heptanoylamino)-benzoylamino]phenyl-acetic acid] | 101 to 1000 | > 3300 | – | – | –
13 | O=C(CCCCCCC(=O)N1CCc2c([nH]c3ccccc23)C1C(=O)N[C@@H](Cc1ccccc1)C(=O)OC1CCCC1)NO (stereo partly drawn) [Compound 64, (S)-2-{[2-(7-Hydroxycarbamoyl-heptanoyl)-2,3,4,9-tetrahydro-1H-beta-carboline-1-carbonyl]-amino}-3-phenyl-propionic acid cyclopentyl ester] | 101 to 1000 | 330 to 3300 | – | 330 to 3300 | –
14 | O=C(CCCCCCC(=O)N1CCc2c([nH]c3ccccc23)C1C(=O)N[C@@H](Cc1ccccc1)C(=O)O)NO (stereo partly drawn) [Compound 65, (S)-2-{[2-(7-Hydroxycarbamoyl-heptanoyl)-2,3,4,9-tetrahydro-1H-beta-carboline-1-carbonyl]-amino}-3-phenyl-propionic acid] | < 100 | > 3300 | – | – | –
15 | O=C(CCCCCCC(=O)Nc1cncc(CN[C@@H](Cc2ccccc2)C(=O)O)c1)NO [Compound 67, (S)-2-{[5-(7-Hydroxycarbamoyl-heptanoylamino)-pyridin-3-ylmethyl]-amino}-3-phenyl-propionic acid] | 101 to 1000 | > 3300 | – | – | –
16 | O=C(CCCCCNC(=O)c1cccc(CN[C@H](C(=O)OC2CCCC2)c2ccccc2)c1)NO [Compound 69, (S)-[3-(5-Hydroxycarbamoyl-pentylcarbamoyl)-benzylamino]-phenyl-acetic acid cyclopentyl ester] | 101 to 1000 | 330 to 3300 | – | 330 to 3300 | –
17 | O=C(CCCCCNC(=O)c1cccc(CN[C@H](C(=O)O)c2ccccc2)c1)NO [Compound 70, (S)-[3-(5-Hydroxycarbamoyl-pentylcarbamoyl)-benzylamino]-phenyl-acetic acid] | 101 to 1000 | > 3300 | – | – | –
18 | O=C(CCCCCCC(=O)Nc1cccc(CNC(=O)N[C@H](C(=O)OC2CCCC2)c2ccccc2)c1)NO [Compound 79, (S)-{3-[3-(7-Hydroxycarbamoyl-heptanoylamino)-benzyl]-ureido}-phenyl-acetic acid cyclopentyl ester] | < 100 | – | > 3300 | > 3300 | –
19 | O=C(CCCCCCC(=O)Nc1cccc(COC(=O)N[C@@H](Cc2ccccc2)C(=O)OC2CCCC2)c1)NO [Compound 94, (S)-2-[3-(7-Hydroxycarbamoyl-heptanoylamino)-benzyloxycarbonylamino]-3-phenyl-propionic acid cyclopentyl ester] | 101 to 1000 | – | 330 to 3300 | 330 to 3300 | –
20 | O=C(CNCc1ccc(CNCc2ccc3cc(C(=O)NO)sc3c2)cc1)OC1CCCC1 [Compound 120, (4-{[(2-Hydroxycarbamoyl-benzo[b]thiophen-6-ylmethyl)-amino]-methyl}-benzylamino)-acetic acid cyclopentyl ester] | < 100 | – | < 330 | < 330 | –
21 | O=C(NO)c1cc2ccc(CNCC3CCC(CN[C@H](C(=O)OC4CCCC4)c4ccccc4)CC3)cc2s1 (stereo partly drawn) [Compound 126, (S)-[(4-{[(2-Hydroxycarbamoyl-benzo[b]thiophen-6-ylmethyl)-amino]-methyl}-cyclohexylmethyl)-amino]phenyl-acetic acid cyclopentyl ester] | 101 to 1000 | – | < 330 | > 3300 | –
22 | CC(C)(C)OC[C@H](NCc1ccc(NCc2ccc3cc(C(=O)NO)sc3c2)cc1)C(=O)OC1CCCC1 [Compound 134, (S)-3-tert-Butoxy-2-{4-[(2-hydroxycarbamoyl-benzo[b]thiophen-6-ylmethyl)-amino]-benzylamino}-propionic acid cyclopentyl ester] | 101 to 1000 | – | 330 to 3300 | > 3300 | –
